Patent US11312727B1, “Macrocyclic flu endonuclease inhibitors” (Janssen BioPharma, Inc., priority 2018, dated 2022)

How the values were obtained:
[1] = tested on: Influenza strain A549 A/WSN/33 (H1N1); assay: microbe, parasite or virus in culture; format: cell-based; settings: Influenza A virus, A549, 20 h, A549 cells, influenza A/WSN/33 (H1N1), 20 hours incubation; read-out: A549_A(H1N1) EC50
in vitro = settings: human, CC50, uninfected A549 cells, CellTiter-Glo

Compound	EC50 [1] [nM]	CC50 (in vitro) [nM]
O=C1c2c(O)c(=O)ccn2N2CN1C/C=C\CCc1ccccc1[C@H]2c1ccccc1 (single isomer, unassigned) [Compound 21A, (17*R,*Z)-4-hydroxy-16-phenyl-7,10,11,16-tetrahydro-6,17-methanobenzo[k]pyrido[1,2-b][1,2,5]triazacyclotridecine-3,5-dione]	5	> 1000
O=C1c2c(O)c(=O)ccn2N2CN1C/C=C\COc1c(F)cccc1[C@H]2c1cccc(F)c1 (single isomer, unassigned) [Compound 59A, (18*R,Z)-4-fluoro-18-(3-fluorophenyl)-12-hydroxy-6,9-dihydro-18H-10,17-methanobenzo[b]pyrido[1,2-f][1]oxa[5,6,9]triazacyclotridecine-11,13-dione]	5	
CC[C@H]1/C=C/COc2c(ccc(F)c2F)[C@@H](c2ccccc2C)N2CN1C(=O)c1c(O)c(=O)ccn12 (single isomer, unassigned) [Compound 167AA, (9*S,18*R,E)-9-ethyl-3,4-difluoro-12-hydroxy-18-(o-tolyl)-6,9-dihydro-18H-10,17-methanobenzo[b]pyrido[1,2-f][1]oxa[5,6,9]triazacyclotridecine-11,13-dione]	0.91	
CC[C@@H]1/C=C/COc2c(ccc(F)c2F)[C@@H](c2ccccc2C)N2CN1C(=O)c1c(O)c(=O)ccn12 (single isomer, unassigned) [Compound 167AB, (9*R,18*R,E)-9-ethyl-3,4-difluoro-12-hydroxy-18-(o-tolyl)-6,9-dihydro-18H-10,17-methanobenzo[b]pyrido[1,2-f][1]oxa[5,6,9]triazacyclotridecine-11,13-dione]	0.96	
CC[C@H]1/C=C/COc2c(ccc(F)c2F)[C@H](c2ccccc2C)N2CN1C(=O)c1c(O)c(=O)ccn12 (single isomer, unassigned) [Compound 167BA, (9*S,18*S,E)-9-ethyl-3,4-difluoro-12-hydroxy-18-(o-tolyl)-6,9-dihydro-18H-10,17-methanobenzo[b]pyrido[1,2-f][1]oxa[5,6,9]triazacyclotridecine-11,13-dione]	> 50	
CC[C@@H]1/C=C/COc2c(ccc(F)c2F)[C@H](c2ccccc2C)N2CN1C(=O)c1c(O)c(=O)ccn12 (single isomer, unassigned) [Compound 167BB, (9*R,18*S,E)-9-ethyl-3,4-difluoro-12-hydroxy-18-(o-tolyl)-6,9-dihydro-18H-10,17-methanobenzo[b]pyrido[1,2-f][1]oxa[5,6,9]triazacyclotridecine-11,13-dione]	> 50	
O=C1c2c(O)c(=O)ccn2N2CN1C1(/C=C/COc3cc(F)c(F)c4c3[C@H]2c2ncccc2SC4)CCC1 (single isomer, unassigned) [Compound 168B, (21a′*S,*E)-24′,25′-difluoro-16′-hydroxy-6′,21a′-dihydro-10′H-spiro[cyclobutane-1,13′-[7,8](epiprop[1]en[1]yl[3]ylidene)[14,21]methanopyrido[1,2-f]pyrido[2′,3′:6,7]thiepino[4,5-c][1]oxa[5,6,9]triazacyclotridecine]-15′,17′-dione]	0.6	
CC(C)[C@H]1/C=C/COc2cc(F)c(F)c3c2[C@H](c2ccccc2SC3)N2CN1C(=O)c1c(O)c(=O)ccn12 (single isomer, unassigned) [Compound 169BA, (9*S,17a*R,*E)-24,25-difluoro-12-hydroxy-9-isopropyl-2,6,9,17a-tetrahydro-3,4-(epiprop[1]en[1]yl[3]ylidene)-10,17-methanobenzo[6,7]thiepino[4,5-c]pyrido[1,2-f][1]oxa[5,6,9]triazacyclotridecine-11,13-dione]	0.83	
CC[C@H]1/C=C/COc2c(ccc(Cl)c2F)[C@@H](c2ccccc2)N2CN1C(=O)c1c(O)c(=O)ccn12 (single isomer, unassigned) [Compound 170BA, (9*S,18*R,E)-3-chloro-9-ethyl-4-fluoro-12-hydroxy-18-phenyl-6,9-dihydro-18H-10,17-methanobenzo[b]pyrido[1,2-f][1]oxa[5,6,9]triazacyclotridecine-11,13-dione]	24	
CC[C@@H]1/C=C/COc2c(ccc(Cl)c2F)[C@@H](c2ccccc2)N2CN1C(=O)c1c(O)c(=O)ccn12 (single isomer, unassigned) [Compound 170BB, (9*R,18*R,E)-3-chloro-9-ethyl-4-fluoro-12-hydroxy-18-phenyl-6,9-dihydro-18H-10,17-methanobenzo[b]pyrido[1,2-f][1]oxa[5,6,9]triazacyclotridecine-11,13-dione]	2	
CC[C@H]1/C=C/COc2c(ccc(F)c2Cl)[C@@H](c2ccccc2)N2CN1C(=O)c1c(O)c(=O)ccn12 (single isomer, unassigned) [Compound 173BA, (9*S,18*R,*E)-4-chloro-9-ethyl-3-fluoro-12-hydroxy-18-phenyl-6,9-dihydro-18H-10,17-methanobenzo[b]pyrido[1,2-f][1]oxa[5,6,9]triazacyclotridecine-11,13-dione]	26	
Cc1ccccc1[C@H]1c2ccc(F)c(F)c2OC/C=C/C2(CCC2)N2CN1n1ccc(=O)c(O)c1C2=O (single isomer, unassigned) [Compound 174B, (18′*S,*E)-3′,4′-difluoro-12′-hydroxy-18′-(o-tolyl)-6′H,18′H-spiro[cyclobutane-1,9′-[10,17]methanobenzo[b]pyrido[1,2-f][1]oxa[5,6,9]triazacyclotridecine]-11′,13′-dione]	1.2	
O=C1c2c(O)c(=O)ccn2N2CN1C/C=C\COc1c(ccc(F)c1F)[C@H]2c1ccccc1CF (single isomer, unassigned) [Compound 175A, (18*R,Z)-3,4-difluoro-18-(2-(fluoromethyl)phenyl)-12-hydroxy-6,9-dihydro-18H-10,17-methanobenzo[b]pyrido[1,2-f][1]oxa[5,6,9]triazacyclotridecine-11,13-dione]	2.3	
O=C1c2c(O)c(=O)ccn2N2CN1[C@@]1(/C=C/COc3cc(F)c(F)c4c3[C@H]2c2ccccc2SC4)CCOC1 (single isomer, unassigned) [Compound 176BA, (3*R, 17a′*S,*E)-24′,25′-difluoro-12′-hydroxy-2′,4,5,17a′-tetrahydro-2H,6′H-spiro[furan-3,9′-[3,4](epiprop[1]en[1]yl[3]ylidene)[10,17]methanobenzo[6,7]thiepino[4,5-c]pyrido[1,2-f][1]oxa[5,6,9]triazacyclotridecine]-11′,13′-dione]	1.1	
O=C1c2c(O)c(=O)ccn2N2CN1[C@]1(/C=C/COc3cc(F)c(F)c4c3[C@H]2c2ccccc2SC4)CCOC1 (single isomer, unassigned) [Compound 176BB, (3*S, 17a′*S,*E)-24′,25′-difluoro-12′-hydroxy-2′,4,5,17a′-tetrahydro-2H,6′H-spiro[furan-3,9′-[3,4](epiprop[1]en[1]yl[3]ylidene)[10,17]methanobenzo[6,7]thiepino[4,5-c]pyrido[1,2-f][1]oxa[5,6,9]triazacyclotridecine]-11′,13′-dione]	1.4	
COC[C@H]1/C=C/COc2cc(F)c(F)c3c2[C@H](c2ccccc2SC3)N2CN1C(=O)c1c(O)c(=O)ccn12 (single isomer, unassigned) [Compound 177AA, (9*R,17a*R,*E)-24,25-difluoro-12-hydroxy-9-(methoxymethyl)-2,6,9,17a-tetrahydro-3,4-(epiprop[1]en[1]yl[3]ylidene)-10,17-methanobenzo[6,7]thiepino[4,5-c]pyrido[1,2-f][1]oxa[5,6,9]triazacyclotridecine-11,13-dione]	15	
COC[C@@H]1/C=C/COc2cc(F)c(F)c3c2[C@H](c2ccccc2SC3)N2CN1C(=O)c1c(O)c(=O)ccn12 (single isomer, unassigned) [Compound 177AB, (9*S,17a*R,*E)-24,25-difluoro-12-hydroxy-9-(methoxymethyl)-2,6,9,17a-tetrahydro-3,4-(epiprop[1]en[1]yl[3]ylidene)-10,17-methanobenzo[6,7]thiepino[4,5-c]pyrido[1,2-f][1]oxa[5,6,9]triazacyclotridecine-11,13-dione]	0.67	
O=C1c2c(O)c(=O)ccn2N2CN1C1(/C=C/COc3cc(F)cc4c3[C@@H]2c2ccccc2SC4)CCC1 (single isomer, unassigned) [Compound 180A, (17a′*R,*E)-24′-fluoro-12′-hydroxy-2′,17a′-dihydro-6′H-spiro[cyclobutane-1,9′-[3,4](epiprop[1]en[1]yl[3]ylidene)[10,17]methanobenzo[6,7]thiepino[4,5-c]pyrido[1,2-f][1]oxa[5,6,9]triazacyclotridecine]-11′,13′-dione]	29	
O=C1c2c(O)c(=O)ccn2N2CN1C1(/C=C/COc3cc(F)cc4c3[C@H]2c2ccccc2SC4)CCC1 (single isomer, unassigned) [Compound 180B, (17a′*S,*E)-24′-fluoro-12′-hydroxy-2′,17a′-dihydro-6′H-spiro[cyclobutane-1,9′-[3,4](epiprop[1]en[1]yl[3]ylidene)[10,17]methanobenzo[6,7]thiepino[4,5-c]pyrido[1,2-f][1]oxa[5,6,9]triazacyclotridecine]-11′,13′-dione]	0.36	
O=C1c2c(O)c(=O)ccn2N2CN1[C@H]1C[C@H]1CCOc1cccc3c1[C@H]2c1ccccc1SC3 (stereo in doubt) [Compound 166B, cis-(11a*RS,12a*RS,13S,20a*S)-15-hydroxy-6,11,11a,12,12a,20a-hexahydro-10H-7,8-(epiprop[1]en[1]yl[3]ylidene)-13,20-methanobenzo[6,7]thiepino[4,5-c]cyclopropa[j]pyrido[1,2-f][1]oxa[5,6,9]triazacyclotridecine-14,16-dione]	28	
CC[C@H]1/C=C/COc2cccc3c2[C@@H](c2ccccc2SC3)N2CN1C(=O)c1c(O)c(=O)ccn12 [Compound 92BA, (9S,17aS,E)-9-ethyl-12-hydroxy-2,6,9,17a-tetrahydro-3,4-(epiprop[1]en[1]yl[3]ylidene)-10,17-methanobenzo[6,7]thiepino[4,5-c]pyrido[1,2-f][1]oxa[5,6,9]triazacyclotridecine-11,13-dione]	0.7	
